Measurements as given in patent US12187762B2, “Dithiolsaccharide mucolytic agents and uses thereof” (The Regents of the University of California, priority 2018, dated 2025).
“Also recorded” adds a separate entry of the source.

What was measured:
[1] = system: primary human airway epithelial cells (AECs); assay: G6PD release cytotoxicity assay in airway epithelial cells at air-liquid interface; assay type: cell-based; conditions: Compound 1 disodium salt, apical exposure 1 hr at 37° C. at 5, 25 and 50 mM, 6 hr recovery; compared with PBS control
Description: Briefly, primary tracheobronchial epithelial cells from ten donors were expanded in culture and differentiated at air-liquid interface for 21 days. Detailed cell culture protocols for airway epithelial cells can be found in Lachowicz-Scroggins et al, Cell Discov, 4, Article 7, 2018 and Widdicombe et al, Biotechniques, 39, 249-255, 2005. Compound 1 (disodium salt) was dissolved in PBS, added to apical surface of the cells at 5, 25 and 50 mM and left for 1 hr at 37° C. PBS was negative control. The apical and basolateral surfaces were washed with PBS, fresh media was added to basolateral side for 6 hr recovery period and collected for G6PD measurements. One control filter was harvested for full lysis with NP-40 lysis buffer to measure total G6PD content in cell lysates.
G6PD (glucose 6-phosphase dehydrogenase) release is a common method of assessing the extent of cellular damage or death. G6PD was measured using Vybrant® Cytotoxicity Assay Kit (ThermoFisher Scientific) and expressed as percent released relative to the total G6PD content.

C57BL/6 mice = assay: In vivo safety assessment, mouse intranasal (pulmonary) delivery model
Description: Body weights were recorded on days 1, 8 and 15. On day 15, BAL was performed and used for total and differential cell counts. Mice were euthanized on day 15, and whole lung was fixed in 10% formalin, embedded in paraffin, sectioned and H&E stained for subsequent injury scoring by board-certified lung pathologist (Table 1B provides scoring criteria). Scoring was done blindly. Sera were obtained from blood collected by cardiac puncture and tested for renal and metabolic function outcomes.
Table 1. […] Safety outcomes in mouse pulmonary delivery model (A). […] Outcome measures of safety included body weight, renal function tests, measures of lung injury in bronchoalveolar lavage (BAL), and histologic appearance of tissue sections from formalin-fixed and paraffin-embedded lungs.

[2] = Cone-and-plate rheology of elastic modulus (G′) in thiolated hydrogel substrate; conditions: for concentration needed to cause a 40% decrease in the G′ of the hydrogel (ΔG′=−40%): 30 min incubation, dose response 0.5-10 mM
Description: 2.2. Preparation of thiolated hyaluronic acid hydrogel as a model substrate: Thiolated hyaluronic acid hydrogel (Glycosil®, ESI-BIO) was solubilized in 10% DMSO/75 mM NaCl/sodium phosphate pH 7.4 buffer, prepared using degassed water. Aliquots of 250 microliter of gel solution were distributed to 1.5 ml centrifuge tubes, sealed, and incubated overnight (˜18 hours) at room temperature to allow for slow oxidation and cross-linking of the hydrogel. Gels formed by this protocol typically yielded elastic moduli of 20-30 Pa, measured by cone-and-plate rheology.
2.3. Rheological measurements: A rheometer was employed to determine the effect of the compounds disclosed herein on the elastic modulus (G′) of ex vivo human sputum or model hydrogel substrate. The terms “elastic modulus”, G′, and the like refer to the elastic modulus as known in the art. Rheological measurements were made with AR2000 or DHR cone-and-plate rheometer (TA instruments), as known in the art. For sputum samples, ˜0.8 mL was used per assay, with 40 mm 2° geometry. For thiolated hydrogel samples, 0.25 mL was used per assay, with 40 mm ½° geometry. For timesweep recordings, a solvent trap with water as solvent was employed to minimize drying. Test compounds were dissolved in water and added at 10% v/v, to result in the final concentration of interest in the sample. The effect of test compound was measured by taking measurements every 2 min, for a period of 30 min. Normalized ratio % G′ was calculated by dividing the post treatment measurement of G′ at particular timepoint by pretreatment measurement of G′. Percent change in elastic modulus (% ΔG′) was calculated by comparing the measurement at 30 min to the initial pretreatment baseline.
Rheological measurements with Compound 1, Compound 5, Compound 9 and N-acetylcysteine at concentrations between 0.5-10 mM were conducted in order to understand the dose dependence of mucolytic efficacy on concentration of the dithiol test agents (FIG. 3). Effective concentration that causes 40% change in G′ for each test agent was determined. All dithiols tested cause 40% change in G′ at concentrations <1 mM, while NAC requires ˜8-10× higher dose to achieve the same mucolytic effect.
Mucolytic efficacy data was collected in cross-linked thiolated hydrogel model system for multiple enabled dithiolsaccharide compounds and N-acetylcysteine at 5 mM.

[3] = mean ± SEM, BAL on day 15, intranasal 30 μL, 25 mM, 10 doses
[4] = mean ± SEM, serum, intranasal 30 μL, 25 mM, 10 doses

SMILES: OC1C(O)[C@H](S)OC(CS)[C@@H]1O (stereo partly drawn) [Compound 1, 1,6-dithio-6-deoxy-β-D-galactopyranose]
- % release of G6PD (cell toxicity) [1]: minimal and similar to that of the Phosphate Buffered Saline (PBS) control; also recorded: low and similar to the PBS control
- systemic or lung toxicity compared to control saline (C57BL/6 mice; intranasal 30 μL of 25 mM daily, 10 doses over 2 weeks, N=10 mice): did not cause any discernible systemic or lung toxicity
- BAL Eosinophil % (C57BL/6 mice; [3]): 0 ± 0%
- BAL Lymphocyte % (C57BL/6 mice; [3]): 0 ± 0.1%
- BAL Macrophage % (C57BL/6 mice; [3]): 100 ± 0.1%
- BAL Neutrophil % (C57BL/6 mice; [3]): 0 ± 0%
- BAL total cell count (C57BL/6 mice; [3]): (37.3 ± 7) × 10^4
- Lung Injury Score (C57BL/6 mice; mean ± SEM, blinded histology score 0-4 per Table 1B, day 15, intranasal 30 μL, 25 mM, 10 doses): 0.4 ± 0.16
- Body weight (C57BL/6 mice; mean ± SEM, intranasal 30 μL, 25 mM, 10 doses over 2 weeks): 18.6 ± 0.32 g
- Blood urea nitrogen (renal function test) (C57BL/6 mice; [4]): 25 ± 1.3 mg/dL
- Creatinine (renal function test) (C57BL/6 mice; [4]): 0.15 ± 0.01 mg/dL
- concentration needed to cause a 40% decrease in the G′ of the hydrogel (ΔG′=−40%) [2]: 0.7 mM

SMILES: OC1C(O)[C@H](O)C(CS)O[C@@H]1O[C@H]1OC(CS)[C@@H](O)C(O)C1O (stereo partly drawn) [Compound 5, 6,6′-dithio-6,6′-dideoxy-α,α-trehalose]
- concentration needed to cause a 40% decrease in the G′ of the hydrogel (ΔG′=−40%) [2]: 1.0 mM

SMILES: CO[C@]1(CS)O[C@H](CS)C(O)C1O (stereo partly drawn) [Compound 9, Methyl-1,6-dithio-1,6-dideoxy-β-D-fructofuranoside]
- concentration needed to cause a 40% decrease in the G′ of the hydrogel (ΔG′=−40%) [2]: 0.7 mM

SMILES: CC(=O)N[C@@H](CS)C(=O)O [NAC, N-acetylcysteine, reference compound]
- concentration needed to cause a 40% decrease in the G′ of the hydrogel (ΔG′=−40%) [2]: 8 mM
- dose of NAC relative to dithiols needed to achieve the same mucolytic effect (40% change in G′) ([2]; fold higher dose than dithiols): 8-10 ×
